How the values were obtained:
[1] = test system: wild-type and PAI-1 gene-deficient fibrosarcoma cell lines; assay: Clonogenic assay (colony formation in soft agar); format: cell-based, mouse; details: PAI-1−/− versus wild type fibrosarcoma cells
Description: The cell lines described in Example 1 were used. The cells were in passage 35 (wild-type cells) and passage 50 (PAI-1 gene deficient cells). […] Gentle aspiration was repeated using a 1 ml syringe to achieve single cell suspension. 1 ml was then plated in triplicate in Petri dishes upon a feeder layer of SRBC (see separate paragraph for preparation of these). When the agar had solidified, 1 ml of media was added on top. 18-24 dishes were placed on plastic trays and two Petri dishes containing water were placed on each tray for conditioning. […] Colonies (>64 cells) were counted after 3 weeks. The experimental drugs were dissolved in media×300 the final concentration. […] Viable cells were counted after 8 minutes.

[2] = test system: PAI-1 transfected PAI-1−/− fibrosarcoma cells; assay: LDH release after reintroduction of PAI-1 expression; format: cell-based, mouse; details: PAI-1−/−(PAI-1 pool) versus PAI-1−/− (vector pool) and parental PAI-1−/− cells
Description: Transfection of PAI-1−/− fibrosarcoma cells was performed by the use of Lipofectamine 2000 ([…]) according to the manufactures instructions employing 2×10^5 cells. After 2 days the cells were seed in tissue culture flasks and 100 μg/ml Hygromycin was added to the medium to select for transfected cells in pooled population. Experiments were performed 2 months after transfection. The sensitivity to apoptosis was measured by treating the cells with etoposide and TNF-α and detecting the LDH release as described in Example 4.

[3] = test system: PAI-1−/− fibrosarcoma cells; assay: LDH release cytotoxicity assay; format: cell-based, mouse; details: for LDH release (% of total activity): PAI-1−/− cells; for sensitivity to treatment (LDH release): PAI-1−/− compared with PAI-1+/+ fibrosarcoma cells; for cell lysis (LDH release): both PAI-1−/− and PAI-1+/+ fibrosarcoma cells
Text: (§1) The damage of the plasma membrane is classically evaluated as a parameter for cell death. In vivo the plasma membrane of apoptotic cells persists until the cell is phagocytised. In contrast, necrotic cell death results in leakage of cytoplasm to the extracellular environment, which leads to an inflammatory response. Under cell culture conditions, cells that have been subjected to an apoptotic stimulus will initially die by apoptosis, but later shift into secondary necrosis due to lack of phagocytosis in the cell culture. Cytotoxicity or cell lysis can be measured by determining the release of lactate dehydrogenase (LDH) in the culture supernatant. For this purpose the “Cytotoxicity detection kit” (Roche, Mannheim, Germany) was employed.
(§2) PAI-1−/− and PAI-1+/+ fibrosarcoma cells were seeded in a 96-well microtiter plate (2500 cells/well). Fifty μl of culture supernatant (total: 200 μl) is transferred to a new 96-well microtiter plate and mixed with 50 μl of a substrate mix. The remaining supernatant is discarded, and the remaining intact cells are lysed by addition of 200 μl of lysis buffer (1% Triton-X100 in CM). After 30 min lysis at 37° C., 50 μl of lysate is transferred to a new 96-well microtiter plate and mixed with 50 μl of a substrate mix. The cell culture supernatant and lysate are incubated for 10 min with the substrate mix protected from light. The absorbance is measured on a spectrophotometer at λ1=490 nm and reference λ2=650 nm. The amount of released LDH in % is related to total amount: [formula] Results

[4] = test system: PAI-1+/+ fibrosarcoma cells; assay: LDH release cytotoxicity assay; format: cell-based, mouse; details: PAI-1+/+ cells
Text: as §1, §2

[5] = test system: TIMP-1 +/+ and TIMP-1 −/− fibrosarcoma cell lines; assay: DNA-histone complex assay; format: cell-based, mouse
[6] = test system: TIMP-1−/− and TIMP-1+/+ fibrosarcoma cells; assay: LDH release cytotoxicity assay; format: cell-based, mouse
Text: as §1
TIMP-1−/− and TIMP-1+/+ fibrosarcoma cells (see above method for establishment of fibrosarcoma cells from mice) were seeded in a 96-well microtiter plate (2500 cells/well). After 24 hours, cells are treated with etoposide for 24 h. Fifty μl of culture supernatant (total: 200 μl) is transferred to a new 96-well microtiter plate and mixed with 50 μl of a substrate mix. The remaining supernatant is discarded, and the remaining intact cells are lysed by addition of 200 μl of lysis buffer (1% Triton-X100 in CM). […] The absorbance is measured on a spectrophotometer at λ1=490 nm and reference λ2=650 nm. […]

[7] = In vivo toxicity (weight loss, white blood cells) in PAI-1 +/+ and PAI-1 −/− mice; details: 75 mg/kg i.p.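 Note: nude META/Bom nu/nu mice of both sexes, 24-30 g, blood taken for hematology on day 3 (anticipated WBC nadir) and on day 5 after dosing.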
Description: We investigated the sensitivity of the intact mouse by a “comparison” of sensitivity between the PAI-I +/+ and −/− mice in terms of weight loss.
Furthermore blood was sampled on the day of expected nadir (day 3 (WBC)) and day 5, with hematological evaluation.
Mice: META™/Bom nu/nu; PAI-1+/+ and PAI-1 −/−. Size (gram): 24-30 grams females and males.
The drug was administered i.p., freshly made, relative to body weight, in a NaCl solvent (Batch 3036111) according to the following table:

In the case of `Nc1ccn([C@@H]2O[C@H](CO)[C@@H](O)[C@@H]2O)c(=O)n1` [ARA-C], the “sensitivity in clonogenic assay (colony formation)” value (“sensitivity in clonogenic assay” below) [1] was “significantly more sensitive”.

In the case of `N.N.[Cl][Pt][Cl]` [cisplatin], the “sensitivity in clonogenic assay” value [1] was “significantly more sensitive”.

With `COc1cccc2c1C(=O)c1c(O)c3c(c(O)c1C2=O)C[C@@](O)(C(=O)CO)C[C@@H]3O[C@H]1C[C@H](N)[C@H](O)[C@H](C)O1` [doxorubicin] the “sensitivity in clonogenic assay” value [1] was “significantly more sensitive”.

For `COc1cc([C@@H]2c3cc4c(cc3[C@@H](O[C@@H]3O[C@@H]5CO[C@@H](C)O[C@H]5[C@H](O)[C@H]3O)[C@H]3COC(=O)[C@H]23)OCO4)cc(OC)c1O` [etoposide], the “resistance to induced cell death (LDH release)” value [2] was “significantly more resistant”, the “LDH release (% of total activity)” value ([3]; 1.25 μM etoposide, 48 h) was 41.10% and the “sensitivity to treatment (LDH release)” value [3] was “significantly more sensitive”. For the same compound, the “cell lysis (LDH release)” value [3] was “dose-dependent cell lysis”, the “LDH release (% of total activity)” value ([4]; 1.25 μM etoposide, 48 h) was 1% and the apoptosis induction [5] was “induced apoptosis”. The “sensitivity to treatment (LDH release)” value ([6]; TIMP-1−/− compared with TIMP-1+/+ fibrosarcoma cells) was “significantly more sensitive”, the “cell lysis (LDH release)” value ([6]; both TIMP-1−/− and TIMP-1+/+ fibrosarcoma cells) was “dose-dependent cell lysis” and the “day of WBC nadir” value ([7]; both genotypes) was 3 days. The “effect on white blood cell count (WBC)” value ([7]; both genotypes, p=0.0003) was “suppresses white blood cell count”, the “difference in WBC response between PAI-1 +/+ and PAI-1 −/− mice” value ([7]; p=0.99) was “no difference” and the “weight loss in treated mice” value ([7]; treated versus untreated, p<0.0001) was “significant loss of weight”. The “Drug induced effect on weight loss (weight, initial = 100)” value (“Drug induced effect on weight loss” for short) ([7]; PAI-1 +/+ female mice, 22.0 hours) was 101.2, the “Drug induced effect on weight loss” value ([7]; PAI-1 +/+ female mice, 44.5 hours) was 98.3 and the “Drug induced effect on weight loss” value ([7]; PAI-1 +/+ female mice, 67.0 hours) was 98.2. For the same compound, the “Drug induced effect on weight loss” value ([7]; PAI-1 +/+ female mice, 93.5 hours) was 98.4, the “Drug induced effect on weight loss” value ([7]; PAI-1 +/+ female mice, 120.0 hours) was 97.7 and the “Drug induced effect on weight loss” value ([7]; PAI-1 +/+ male mice, 22.0 hours) was 97.6. The “Drug induced effect on weight loss” value ([7]; PAI-1 +/+ male mice, 44.5 hours) was 94.9, the “Drug induced effect on weight loss” value ([7]; PAI-1 +/+ male mice, 67.0 hours) was 92.9 and the “Drug induced effect on weight loss” value ([7]; PAI-1 +/+ male mice, 93.5 hours) was 91.0. For the same compound, the “Drug induced effect on weight loss” value ([7]; PAI-1 +/+ male mice, 120.0 hours) was 91.8, the “Drug induced effect on weight loss” value ([7]; PAI-1 −/− female mice, 22.0 hours) was 99.9 and the “Drug induced effect on weight loss” value ([7]; PAI-1 −/− female mice, 44.5 hours) was 99.1. The “Drug induced effect on weight loss” value ([7]; PAI-1 −/− female mice, 67.0 hours) was 99.6, the “Drug induced effect on weight loss” value ([7]; PAI-1 −/− female mice, 93.5 hours) was 98.7 and the “Drug induced effect on weight loss” value ([7]; PAI-1 −/− female mice, 120.0 hours) was 100.3. The “Drug induced effect on weight loss” value ([7]; PAI-1 −/− male mice, 22.0 hours) was 99.1, the “Drug induced effect on weight loss” value ([7]; PAI-1 −/− male mice, 44.5 hours) was 96.3 and the “Drug induced effect on weight loss” value ([7]; PAI-1 −/− male mice, 67.0 hours) was 96.4. The “Drug induced effect on weight loss” value ([7]; PAI-1 −/− male mice, 93.5 hours) was 95.6, the “Drug induced effect on weight loss” value ([7]; PAI-1 −/− male mice, 120.0 hours) was 97.0 and the “sensitivity in clonogenic assay” value [1] was “significantly more sensitive”.

For `CC[C@]1(O)C[C@H]2CN(CCc3c([nH]c4ccccc34)[C@@](C(=O)OC)(c3cc4c(cc3OC)N(C=O)[C@H]3[C@@](O)(C(=O)OC)[C@H](OC(C)=O)[C@]5(CC)C=CCN6CC[C@]43[C@@H]65)C2)C1` [vincristine], the “sensitivity in clonogenic assay” value [1] was “significantly more sensitive”.

For TNF-α, the “resistance to induced cell death (LDH release)” value [2] was “significantly more resistant”, the “LDH release (% of total activity)” value ([3]; 2.5 ng/ml TNF-α, 24 h) was 46.3% and the “sensitivity to treatment (LDH release)” value [3] was “significantly more sensitive”. The “cell lysis (LDH release)” value [3] was “dose-dependent cell lysis” and the “LDH release (% of total activity)” value ([4]; 2.5 ng/ml TNF-α, 24 h) was 7.3%.

Source: patent publication US20080019910A1, “Cancer Treatment and Cancer Treatment Efficacy Prediction by Blocking and Detecting Protease Inhibitors” (priority 2004, published 2008)
